Results on two compounds are retold here after ChEMBL document CHEMBL1150479, “2-(3-hydroxypropoxy)-1,25-dihydroxyvitamin D3 (ED-71), preventive and therapeutic effects on bone mineral loss in ovariectomized rats” (Bioorg Med Chem Lett, 1993).

Molecules are shown by their SMILES. The source made the active and inactive calls. No cut-off for these calls is given here.

In test [1] the target is T1, Vitamin D-binding protein (Rattus norvegicus) (UniProt P04276).
T1 sequence (whole entry): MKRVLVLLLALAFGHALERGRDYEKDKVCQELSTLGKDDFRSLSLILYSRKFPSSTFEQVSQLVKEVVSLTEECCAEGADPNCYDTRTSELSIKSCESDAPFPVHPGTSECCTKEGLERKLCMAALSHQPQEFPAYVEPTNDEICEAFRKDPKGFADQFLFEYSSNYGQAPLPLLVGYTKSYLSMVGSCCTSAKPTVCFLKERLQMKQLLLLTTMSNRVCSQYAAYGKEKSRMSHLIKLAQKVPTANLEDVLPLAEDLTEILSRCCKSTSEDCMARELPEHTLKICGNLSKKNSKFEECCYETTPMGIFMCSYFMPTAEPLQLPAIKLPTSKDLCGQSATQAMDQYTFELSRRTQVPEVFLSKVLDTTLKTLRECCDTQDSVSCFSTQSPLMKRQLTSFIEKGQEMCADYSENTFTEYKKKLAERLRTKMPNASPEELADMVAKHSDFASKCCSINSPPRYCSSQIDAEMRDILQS
As to the kind of experiment: In vitro binding potency against vitamin D binding protein (DBP) in ovariectomized rats.

The target in test [2] is T2, Vitamin D3 receptor (Rattus norvegicus) (UniProt P13053).
T2 sequence (whole entry): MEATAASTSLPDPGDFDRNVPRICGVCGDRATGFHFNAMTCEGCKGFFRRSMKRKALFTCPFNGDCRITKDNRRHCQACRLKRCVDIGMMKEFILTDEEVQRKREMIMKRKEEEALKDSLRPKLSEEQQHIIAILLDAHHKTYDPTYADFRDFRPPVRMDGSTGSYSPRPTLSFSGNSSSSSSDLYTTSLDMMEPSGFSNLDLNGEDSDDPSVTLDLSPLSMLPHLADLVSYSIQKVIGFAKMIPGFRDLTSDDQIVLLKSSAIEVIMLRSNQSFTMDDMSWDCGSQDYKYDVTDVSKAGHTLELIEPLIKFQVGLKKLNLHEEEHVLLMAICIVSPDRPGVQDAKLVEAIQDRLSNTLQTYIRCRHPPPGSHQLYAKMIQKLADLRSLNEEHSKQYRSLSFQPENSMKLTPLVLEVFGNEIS
The test can be described thus: In vitro binding potency for vitamin D receptor VDR in 8 ovariectomized rats.

In test [3] the test system is Rattus norvegicus. The test can be described thus: In vivo intestinal calcium absorption was determined against ovariectomized rats; Stimulation. It counts as functional, organism-based.
The species entered for test [4] is Rattus norvegicus. As to the kind of experiment: In vitro bone resorption against ovariectomized rats; Weak stimulation. It counts as functional.
The subject of test [5] is Rattus norvegicus. As to the kind of experiment: In vivo bone calcium mobilization was determined against ovariectomized rats; Stimulation. It counts as functional, organism-based.
The target in test [6] is T2, Vitamin D3 receptor (Rattus norvegicus).
Description: In vitro binding potency for vitamin D receptor VDR in ovariectomized rats
For test [7], the species on record is Rattus norvegicus. As to the kind of experiment: In vitro bone resorption against ovariectomized rats; Stimulation. It counts as functional.

On to `C=C1/C(=C\C=C2/CCC[C@]3(C)C([C@H](C)CCCC(C)(C)O)CC[C@@H]23)C[C@@H](O)[C@@H](OCCCO)[C@@H]1O` (stereo not given in full), for which the Binding potency is 2.7 in test [1] and 1 in test [2]. The Absorption entry with Rattus norvegicus [3] is “Active”. In addition, the Resorption entry in the test listed under Rattus norvegicus [4] is “Partially active”. In the test on Rattus norvegicus [5], the Mobilization result was “Active”.

Turning to `C=C1/C(=C\C=C2/CCC[C@]3(C)[C@@H]([C@H](C)CCCC(C)(C)O)CC[C@@H]23)C[C@@H](O)C[C@@H]1O`, the Binding potency in test [1] and in test [6] was 1 in each case. Moreover, in the test on Rattus norvegicus [3], the Absorption entry was “Active”. In the test with Rattus norvegicus [5], the Mobilization result is “Active”. In the test listed under Rattus norvegicus [7], the Resorption result is “Active”.
